Tests used:
[1] = Lipid nanoparticle size, PDI and encapsulation; assay type: physicochemical; details: Table 3; for Size (nm): lipid nanoparticle; for EE %: lipid nanoparticle encapsulation
Method: In the context of nucleic acids, full encapsulation may be determined by performing a membrane-impermeable fluorescent dye exclusion assay, which uses a dye that has enhanced fluorescence when associated with nucleic acid. Encapsulation is determined by adding the dye to a lipid formulation, measuring the resulting fluorescence, and comparing it to the fluorescence observed upon addition of a small amount of nonionic detergent. Detergent-mediated disruption of the lipid layer releases the encapsulated nucleic acid, allowing it to interact with the membrane-impermeable dye. Nucleic acid encapsulation may be calculated as E=(I0−I)/I0, where I and I0 refer to the fluorescence intensities before and after the addition of detergent.

[2] = Lipid nanoparticle size, PDI and encapsulation; assay type: physicochemical; details: Table 3
[3] = tested on: factor VII; assay: Factor VII knock down evaluation (LNP with FVII siRNA); assay type: in vivo, Balb/C mice; details: plasma FVII after 48 h vs saline control; for FVII KD % 0.01 mpk: 0.01 mpk i.v.; for FVII KD % 0.03 mpk: 0.03 mpk i.v.
How it was run: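 Female Balb/C mice, 7–8 weeks old, received FVII siRNA lipid nanoparticles intravenously at 0.03 or 0.01 mg/kg. Plasma was collected 48 h later and FVII protein measured by chromogenic assay at 405 nm against a control plasma calibration curve. Levels are relative to saline-treated controls.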

[4] = Mouse plasma stability; assay type: in vitro ADME, CD-1 mouse; details: 1 uM lipid
How it was run: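 Lipid at 1 μM starting concentration incubated in stirred CD-1 mouse plasma (sodium heparin) at 37° C.; samples at 0–120 min quenched with acetonitrile/methanol plus internal standard. LC-MS peak area relative to T=0 gave % remaining; T1/2 from first-order decay.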

[5] = Measured pKa in the indicated formulation; details: for pKa: EPO / pKa: FVII: Table 2; for pKa: EPO: measured in EPO formulation; for pKa: FVII: measured in FVII formulation
Method: Measured pKa values were determined based on the pH measured in the indicated formulation (i.e., EPO or FVII formulation).

[6] = tested on: hEPO; assay: hEPO mRNA expression evaluation (hEPO-LNPs); assay type: in vivo, Balb/c mice; details: serum hEPO after 6 hr; for EPO exprssn (ng/mL) 0.1 mpk: 0.1 mpk i.v.; for EPO exprssn (ng/mL) 0.03 mpk: 0.03 mpk i.v.
[7] = In vivo biodegradability assay (lipid in liver); details: mouse liver, 48 h
Method: In vivo biodegradability assay was performed to assess the biodegradability of lipids in the LNP. Briefly, mice were injected with either 0.1 or 0.03 mg/Kg dose and after 24 or 48 hours mice livers were collected. To measure the concentration of lipids in the mouse liver, liver samples were homogenized in appropriate buffer in 1-10 dilution and mixed with the same amount of stabilized plasma. The samples were then mixed with organic solvents spiked with internal standard to precipitate proteins. After centrifugation, supernatant was diluted further with organic solvent before sample analysis by LC-MS. In LC-MS analysis, positive electrospray ionization was used, and multiple reaction monitoring (MRM) parameters were set up to specifically target the lipid analyte and internal standard. Calibration standards were prepared in stabilized plasma and mixed with same amount of homogenization buffer before protein precipitation. Quality control samples with known amounts of lipid was prepared in blank liver homogenate to monitor the precision and accuracy of the assay.

## CC1CCC(CCC(=O)OCC(C)(COC(=O)CCC2CCC(C)CC2)COC(=O)CCN(CCC(=O)OCC(C)(COC(=O)CCC2CCC(C)CC2)COC(=O)CCC2CCC(C)CC2)C(=O)NCCCN(C)C)CC1 (stereo not shown) [Lipid 47, (((3,3′-((((3-dimethylamino)propyl)carbamoyl)azanediyl)bis(propanoyl))bis(oxy))bis(methylene))bis(2-methylpropane-2,1,3-triyl)tetrakis(3-(4-methylcyclohexyl)propanoate)]
[1]
  Size (nm): 98.26 nm
  EE %: 98.9%
[2]
  PDI: 0.089

## CN(C)CCCSC(=O)N(CCCC(=O)OC(COC(=O)CCc1ccc2ccccc2c1)COC(=O)CCc1ccc2ccccc2c1)CCCC(=O)OC(COC(=O)CCc1ccc2ccccc2c1)COC(=O)CCc1ccc2ccccc2c1 [Lipid 44, ((4,4′-((((3-(dimethylamino)propyl)thio)carbonyl)azanediyl)bis(butanoyl))bis(oxy))bis(propane-2,1,3-triyl)tetrakis(3-(naphthalen-2-yl)propanoate)]
[1]
  Size (nm): 113.1 nm
  EE %: 85.7%
[2]
  PDI: 0.134

## CCCCCCC(C)C(=O)OCC(COC(=O)C(C)CCCCCC)OC(=O)CCCN(CCCC(=O)OC(COC(=O)C(C)CCCCCC)COC(=O)C(C)CCCCCC)C(=O)SCCCN(C)C (stereo not shown) [LIPID 18, ((4,4′-((((3-(Dimethylamino)propyl)thio)carbonyl)azanediyl)bis(butanoyl))bis(oxy))bis(propane-2,1,3-triyl)tetrakis(2-methyloctanoate)]
[3]; Table 1
  FVII KD % 0.01 mpk: 60%
  FVII KD % 0.03 mpk: 88%
[3]; Table 2
  FVII KD % 0.01 mpk: 60%
  FVII KD % 0.03 mpk: 88%
[4]; Table 1, mouse plasma 37 C
  Percent remaining in mouse plasma after 2 h: 100%
[4]; Table 2, mouse plasma 37 C
  Percent remaining in mouse plasma after 2 h: 100%
[5]; EPO formulation
  pKa: 6.44
[5]; FVII formulation
  pKa: 6.49
[5]
  pKa: EPO: 6.44
  pKa: FVII: 6.49
[6]; Table 1
  EPO exprssn (ng/mL) 0.1 mpk: 1081 ng/mL
[6]; Table 2
  EPO exprssn (ng/mL) 0.1 mpk: 1081 ng/mL
[7]; Table 1
  In vivo degradability (ng/tissue) at 48h 0.03 mpk: <340 ng/tissue
  In vivo degradability (ng/tissue) at 48h 0.1 mpk: 639 ng/tissue
[7]; Table 2
  In vivo degradability (ng/tissue) at 48h 0.03 mpk: <340 ng/tissue
  In vivo degradability (ng/tissue) at 48h 0.1 mpk: 639 ng/tissue

## CN(C)CCCSC(=O)N(CCCC(=O)OC(COC(=O)CCc1ccc(-c2ccccc2)cc1)COC(=O)CCc1ccc(-c2ccccc2)cc1)CCCC(=O)OC(COC(=O)CCc1ccc(-c2ccccc2)cc1)COC(=O)CCc1ccc(-c2ccccc2)cc1 [Lipid 42, ((4,4′-((((3-(dimethylamino)propyl)thio)carbonyl)azanediyl)bis(butanoyl))bis(oxy))bis(propane-2,1,3-triyl)tetrakis(3-([1,1′-biphenyl]-4-yl)propanoate)]
[1]
  Size (nm): 100.4 nm
  EE %: 88.2%
[2]
  PDI: 0.086

## CN(C)CCCSC(=O)N(CCCC(=O)OC(COC(=O)CCCC1CCCCC1)COC(=O)CCCC1CCCCC1)CCCC(=O)OC(COC(=O)CCCC1CCCCC1)COC(=O)CCCC1CCCCC1 [LIPID 11, ((4,4′-((((3-(Dimethylamino)propyl)thio)carbonyl)azanediyl)bis(butanoyl))bis(oxy))bis(propane-2,1,3-triyl)tetrakis(4-cyclohexylbutanoate)]
[3]; Table 1
  FVII KD % 0.01 mpk: 84%
  FVII KD % 0.03 mpk: 22%
[3]; Table 2
  FVII KD % 0.01 mpk: 84%
  FVII KD % 0.03 mpk: 22%
[4]; Table 1, mouse plasma 37 C
  Percent remaining in mouse plasma after 2 h: 40%
[4]; Table 2, mouse plasma 37 C
  Percent remaining in mouse plasma after 2 h: 40%
[5]; EPO formulation
  pKa: 6.6
[5]; FVII formulation
  pKa: 6.68
[5]
  pKa: EPO: 6.6
  pKa: FVII: 6.68
[6]; Table 1
  EPO exprssn (ng/mL) 0.03 mpk: 169 ng/mL
  EPO exprssn (ng/mL) 0.1 mpk: 548 ng/mL
[6]; Table 2
  EPO exprssn (ng/mL) 0.03 mpk: 169 ng/mL
  EPO exprssn (ng/mL) 0.1 mpk: 548 ng/mL
[7]; Table 1
  In vivo degradability (ng/tissue) at 48h 0.03 mpk: BLOQ
  In vivo degradability (ng/tissue) at 48h 0.1 mpk: BLOQ
[7]; Table 2
  In vivo degradability (ng/tissue) at 48h 0.03 mpk: BLOQ
  In vivo degradability (ng/tissue) at 48h 0.1 mpk: BLOQ

From patent US20240391870A1 (Arcturus Therapeutics, Inc., priority 2023, published 2024)
